pEC50, pIC50: −log10 of the molar value.
How the values were obtained:
SARS-CoV-2 [1] = experiment: Antiviral activity against SARS-CoV-2 omicron variant infected in human Calu-3 cells of organoid assessed as intracellular viral RNA level measured after 48 hrs by qRT-PCR analysis; assay type: functional, organism-based; conditions: Severe acute respiratory syndrome coronavirus 2, Calu-3, 48 h
SARS-CoV-2 [2] = experiment: Antiviral activity against SARS-CoV-2 infected in african green monkey Vero E6 cells pretreated for 1 hrs followed by viral infection for 2 hrs and replaced with fresh medium for 48 hrs post infection by qRT-PCR; assay type: functional, organism-based; conditions: Severe acute respiratory syndrome coronavirus 2, Vero C1008

CC(C)C(=O)OC[C@H]1O[C@@H](n2cc/c(=N\O)[nH]c2=O)[C@H](O)[C@@H]1O [MOLNUPIRAVIR]
pIC50 (SARS-CoV-2 [1]): 6.12

CCC(CC)COC(=O)[C@H](C)N[P@](=O)(OC[C@H]1O[C@@](C#N)(c2ccc3c(N)ncnn23)[C@H](O)[C@@H]1O)Oc1ccccc1
pEC50 (SARS-CoV-2 [2]): 6.11

— ChEMBL document CHEMBL5360552, “Potential RNA-dependent RNA polymerase (RdRp) inhibitors as prospective drug candidates for SARS-CoV-2” (Eur J Med Chem, 2023)
